Experimental data reported in the NIST ThermoML archive (doi:10.1016/j.jct.2018.12.021).
± gives the expanded uncertainty stated by the source.

Assay: mn = molality of the nth substance listed, in mol/kg
Details: for electrical conductivity / mass density: 100 kPa, Liquid; for electrical conductivity: Direct current cell with electrodes; for mass density: Vibrating tube method; for surface tension liquid-gas: Ring tensiometer

CCCCCCCCCCCC[n+]1ccsc1.[Br-] [N-dodecylthiazolium bromide] + O
Details	electrical conductivity [S/m]	mass density [kg/m3]	surface tension liquid-gas [mN/m]
293.15 K, m1 = 0.00122	–	998.24 ± 1.6	–
293.15 K, m1 = 0.00157	0.0131 ± 0.00091	998.27 ± 1.6	–
293.15 K, m1 = 0.00191	–	998.29 ± 1.6	–
293.15 K, m1 = 0.00201	0.017 ± 0.0011	998.3 ± 1.6	–
293.15 K, m1 = 0.00258	–	998.33 ± 1.6	–
293.15 K, m1 = 0.00299	0.0246 ± 0.0016	998.36 ± 1.6	–
293.15 K, m1 = 0.00326	–	998.38 ± 1.6	–
293.15 K, m1 = 0.00407	0.033 ± 0.0023	998.43 ± 1.6	–
293.15 K, m1 = 0.00429	–	998.45 ± 1.6	–
293.15 K, m1 = 0.00507	0.0421 ± 0.0027	998.5 ± 1.6	–
293.15 K, m1 = 0.00548	–	998.53 ± 1.6	–
293.15 K, m1 = 0.00602	0.0483 ± 0.0031	998.57 ± 1.6	–
293.15 K, m1 = 0.00698	0.0568 ± 0.0038	998.64 ± 1.6	–
293.15 K, m1 = 0.00753	0.0603 ± 0.0034	998.68 ± 1.6	–
293.15 K, m1 = 0.00905	0.0699 ± 0.0039	998.78 ± 1.6	–
293.15 K, m1 = 0.01006	0.0754 ± 0.0039	998.85 ± 1.6	–
293.15 K, m1 = 0.01266	0.0892 ± 0.0041	999.01 ± 1.6	–
293.15 K, m1 = 0.01513	0.0958 ± 0.0039	999.17 ± 1.6	–
293.15 K, m1 = 0.01771	0.103 ± 0.0041	999.33 ± 1.6	–
293.15 K, m1 = 0.01974	0.107 ± 0.0042	999.46 ± 1.6	–
293.15 K, m1 = 0.02301	0.116 ± 0.0048	999.66 ± 1.6	–
293.15 K, m1 = 0.02601	0.123 ± 0.0052	999.84 ± 1.6	–
298.15 K, m1 = 0.00122	–	997.08 ± 1.6	–
298.15 K, m1 = 0.00157	0.0147 ± 0.001	997.1 ± 1.6	–
298.15 K, m1 = 0.00191	–	997.12 ± 1.6	–
298.15 K, m1 = 0.00201	0.0189 ± 0.0012	997.13 ± 1.6	–
298.15 K, m1 = 0.00258	–	997.16 ± 1.6	–
298.15 K, m1 = 0.00299	0.0276 ± 0.0017	997.19 ± 1.6	–
298.15 K, m1 = 0.00326	–	997.21 ± 1.6	–
298.15 K, m1 = 0.00407	0.0365 ± 0.0025	997.26 ± 1.6	–
298.15 K, m1 = 0.00429	–	997.28 ± 1.6	–
298.15 K, m1 = 0.00507	0.0469 ± 0.003	997.33 ± 1.6	–
298.15 K, m1 = 0.00548	–	997.36 ± 1.6	–
298.15 K, m1 = 0.00602	0.0535 ± 0.0035	997.39 ± 1.6	–
298.15 K, m1 = 0.00698	0.0632 ± 0.0043	997.46 ± 1.6	–
298.15 K, m1 = 0.00753	0.0671 ± 0.0038	997.5 ± 1.6	–
298.15 K, m1 = 0.00905	0.0779 ± 0.0044	997.61 ± 1.6	–
298.15 K, m1 = 0.01006	0.0845 ± 0.0045	997.68 ± 1.6	–
298.15 K, m1 = 0.01266	0.1 ± 0.0049	997.84 ± 1.6	–
298.15 K, m1 = 0.01513	0.11 ± 0.0044	998 ± 1.6	–
298.15 K, m1 = 0.01771	0.117 ± 0.0046	998.16 ± 1.6	–
298.15 K, m1 = 0.01974	0.123 ± 0.0049	998.29 ± 1.6	–
298.15 K, m1 = 0.02301	0.132 ± 0.0054	998.49 ± 1.6	–
298.15 K, m1 = 0.02601	0.14 ± 0.0059	998.67 ± 1.6	–
303.15 K, m1 = 0.00122	–	995.67 ± 1.6	–
303.15 K, m1 = 0.00157	0.0164 ± 0.0011	995.69 ± 1.6	60.2 ± 1.9
303.15 K, m1 = 0.00191	–	995.71 ± 1.6	–
303.15 K, m1 = 0.00201	0.0209 ± 0.0014	995.72 ± 1.6	57.03 ± 1.8
303.15 K, m1 = 0.00258	–	995.75 ± 1.6	–
303.15 K, m1 = 0.00299	0.0305 ± 0.0019	995.78 ± 1.6	53.96 ± 1.7
303.15 K, m1 = 0.00326	–	995.8 ± 1.6	–
303.15 K, m1 = 0.00407	0.0402 ± 0.0028	995.85 ± 1.6	49.57 ± 1.6
303.15 K, m1 = 0.00429	–	995.87 ± 1.6	–
303.15 K, m1 = 0.00507	0.0517 ± 0.0033	995.92 ± 1.6	43.38 ± 1.4
303.15 K, m1 = 0.00548	–	995.95 ± 1.6	–
303.15 K, m1 = 0.00602	0.0589 ± 0.0038	995.98 ± 1.6	41.31 ± 1.3
303.15 K, m1 = 0.00698	0.0694 ± 0.0046	996.04 ± 1.6	38.15 ± 1.2
303.15 K, m1 = 0.00753	0.0734 ± 0.0042	996.08 ± 1.6	37.87 ± 1.2
303.15 K, m1 = 0.00905	0.0859 ± 0.005	996.18 ± 1.6	32.2 ± 1.1
303.15 K, m1 = 0.01006	0.093 ± 0.0059	996.25 ± 1.6	32.54 ± 1.1
303.15 K, m1 = 0.01266	0.117 ± 0.0059	996.42 ± 1.6	32.07 ± 1.1
303.15 K, m1 = 0.01513	0.125 ± 0.0046	996.57 ± 1.6	32.43 ± 1.1
303.15 K, m1 = 0.01771	0.132 ± 0.005	996.72 ± 1.6	31.44 ± 1
303.15 K, m1 = 0.01974	0.138 ± 0.0054	996.84 ± 1.6	31.87 ± 1
303.15 K, m1 = 0.02301	0.148 ± 0.006	997.04 ± 1.6	–
303.15 K, m1 = 0.02601	0.156 ± 0.0066	997.2 ± 1.6	32.42 ± 1.1
308.15 K, m1 = 0.00122	–	994.05 ± 1.6	–
308.15 K, m1 = 0.00157	0.018 ± 0.0012	994.07 ± 1.6	–
308.15 K, m1 = 0.00191	–	994.09 ± 1.6	–
308.15 K, m1 = 0.00201	0.0229 ± 0.0015	994.1 ± 1.6	–
308.15 K, m1 = 0.00258	–	994.14 ± 1.6	–
308.15 K, m1 = 0.00299	0.0334 ± 0.0021	994.17 ± 1.6	–
308.15 K, m1 = 0.00326	–	994.18 ± 1.6	–
308.15 K, m1 = 0.00407	0.0443 ± 0.003	994.24 ± 1.6	–
308.15 K, m1 = 0.00429	–	994.25 ± 1.6	–
308.15 K, m1 = 0.00507	0.0563 ± 0.0036	994.3 ± 1.6	–
308.15 K, m1 = 0.00548	–	994.33 ± 1.6	–
308.15 K, m1 = 0.00602	0.0646 ± 0.0042	994.36 ± 1.6	–
308.15 K, m1 = 0.00698	0.0757 ± 0.005	994.42 ± 1.6	–
308.15 K, m1 = 0.00753	0.0803 ± 0.0054	994.46 ± 1.6	–
308.15 K, m1 = 0.00905	0.0978 ± 0.0066	994.55 ± 1.6	–
308.15 K, m1 = 0.01006	0.107 ± 0.0064	994.63 ± 1.6	–
308.15 K, m1 = 0.01266	0.131 ± 0.0064	994.78 ± 1.6	–
308.15 K, m1 = 0.01513	0.141 ± 0.0053	994.93 ± 1.6	–
308.15 K, m1 = 0.01771	0.148 ± 0.0057	995.08 ± 1.6	–
308.15 K, m1 = 0.01974	0.156 ± 0.0059	995.2 ± 1.6	–
308.15 K, m1 = 0.02301	0.165 ± 0.0063	995.4 ± 1.6	–
308.15 K, m1 = 0.02601	0.174 ± 0.0075	995.56 ± 1.6	–
313.15 K, m1 = 0.00122	–	992.22 ± 1.6	–
313.15 K, m1 = 0.00157	0.0197 ± 0.0013	992.24 ± 1.6	–
313.15 K, m1 = 0.00191	–	992.26 ± 1.6	–
313.15 K, m1 = 0.00201	0.025 ± 0.0016	992.27 ± 1.6	–
313.15 K, m1 = 0.00258	–	992.3 ± 1.6	–
313.15 K, m1 = 0.00299	0.0366 ± 0.0023	992.33 ± 1.6	–
313.15 K, m1 = 0.00326	–	992.35 ± 1.6	–
313.15 K, m1 = 0.00407	0.0485 ± 0.0032	992.4 ± 1.6	–
313.15 K, m1 = 0.00429	–	992.42 ± 1.6	–
313.15 K, m1 = 0.00507	0.0614 ± 0.0039	992.46 ± 1.6	–
313.15 K, m1 = 0.00548	–	992.49 ± 1.6	–
313.15 K, m1 = 0.00602	0.0703 ± 0.0047	992.52 ± 1.6	–
313.15 K, m1 = 0.00698	0.0838 ± 0.0062	992.58 ± 1.6	–
313.15 K, m1 = 0.00753	0.0904 ± 0.0063	992.62 ± 1.6	–
313.15 K, m1 = 0.00905	0.11 ± 0.0075	992.72 ± 1.6	–
313.15 K, m1 = 0.01006	0.122 ± 0.0071	992.79 ± 1.6	–
313.15 K, m1 = 0.01266	0.146 ± 0.0072	992.94 ± 1.6	–
313.15 K, m1 = 0.01513	0.159 ± 0.0065	993.07 ± 1.6	–
313.15 K, m1 = 0.01771	0.171 ± 0.0066	993.22 ± 1.6	–
313.15 K, m1 = 0.01974	0.177 ± 0.0064	993.33 ± 1.6	–
313.15 K, m1 = 0.02301	0.187 ± 0.007	993.52 ± 1.6	–
313.15 K, m1 = 0.02601	0.196 ± 0.0075	993.68 ± 1.6	–
